Where two headings read alike, the source gives them in different places. Numbered stars: 1 amine (or outer) side, 2 acyl side, 3 side chain; on linkers, the order of the positions; unused ones are H or OH. Bridge positions count the residues as written; N and C are the ends. Square brackets hold non-standard residues; d marks the D form. Peptide text beside a SMILES is read from it. I, II: the chains in the order shown. Actinocin(9to1) = Cc1c2oc3c(C)ccc(C(=O)[*:1])c3nc-2c(C(=O)[*:2])c(N)c1=O; NMeV = CN[C@H](C(=O)O)C(C)C; Sar = CNCC(=O)O
Columns and labels:
[1] = 532 or 665-nm line laser sources; cited from earlier work
[2] = Dark toxicity (MTT assay, without illumination); format: cell-based; details: human; MCF-7 cells, tested in dark; read-out: TC50 (toxicity concentration 50%), dark toxicity
Protocol: (§1) Different experiments were conducted and described below: • MCF7 cells were treated with 2µM of TP2Py or TP3Bzim and exposed to illumination (Fig.9A); • HeLa cells were treated with 2µM of TP2Py or TP3Bzim and exposed to illumination (Fig.9B); • MCF7 cells were treated with TP2Py, 40 min illumination (black circles) or without illumination (white circles) (Fig.9C) • HeLa cells were treated with TP2Py [30 min illumination (black circles) or without illumination (white circles)] or TP3Bzim [15 min illumination (black triangles) or without illumination (white triangles)]
(§2) For each experiment, the source of excitation was a Mercury lamp (130W; 380-600nm) with an excitation filter centered at 452nm (± 45 nm), irradiance, 60mW/cm^2.
(§3) First, the experiment was calibrated by determining the time of illumination exposure which leads to the toxicity 50%, for a given concentration of TPA (2 µM) and for an irradiance of 60mW/cm^2. […] This characteristic time was then used for the plots shown in Fig. 9C and 9D which represent the cell viability as a function of TPA concentration (in HeLa and MCF-7 cells, respectively).

living MCF-7 cells = experiment: One-photon confocal fluorescence microscopy, photo-induced nuclear translocation and membrane blebbing; format: cell-based; details: 2µM, 2 hours, confocal, λexc 458 nm (Fig. 5)
Protocol: One-photon epifluorescence and confocal images were obtained using a SP2 confocal microscope (Leica MicroSystem) equipped with an incubation chamber (37°C, CO2 5%). Excitation and emission filters for epifluorescence were 450-490 nm and 515-700 nm, respectively. A continuous laser line (458 nm) was used for excitation in the confocal mode.
The photo-induced nuclear translocation and membrane blebbing were next assessed using confocal fluorescence microscopy [λexc = 458 nm; emission slit settings: 560-720nm and 530-690nm for TP2Py and TP3Bzim, respectively] under experimental conditions similar to those described in experiment 1 for epifluorescence experiments. The corresponding transmission images illustrating the concomitant membrane blebbing are shown below the confocal fluorescence images. Living MCF7 cells were incubated with 2µM TP3Bzim or TP2Py for 2 hours before observation. As shown in Fig. 5A (TP2Py) and in Fig. 5B (TP3BZim), the results obtained with confocal imaging were similar to those obtained with epifluorescence imaging (experiment 1), with however, some discrepancies in the time courses of event appearance, most likely due to the power of the excitation source which is different between epifluorescence and confocal experiments (see below). […] Based on both criteria (re-localization of the fluorescence signal and the formation of blebs), the deduced fluences were 22 and 40 J/cm^2 for TP2Py and TP3Bzim, respectively. […]
The TP2Py compound at a concentration of 2 µM was first incubated with living MCF-7 cells for 2 hours and then observed with confocal microscope with varying illumination power of the laser source [λ=458 nm; emission slit setting: 560-720 nm]. […] For each condition, the fluorescence intensity in ROIs corresponding to the nucleus was plotted as a function of time (the initial time value, t = 0, represents the first observation) (FIG.7C). Using integration time based on tmax values, light dose values, determined from experiments performed at irradiance of 5.6 or 30 mW/cm^2, were consistent (27.6 and 27 J/cm^2 respectively). These values are in accordance with the above-mentioned value for TP2Py (fluence, 22 J/cm^2 in Fig. 5).
Living MCF-7 cells were treated with varying concentrations of TP2Py for two hours (2µM; 0.2µM and 0.02µM) and observed with a confocal microscope [λexc = 458nm; irradiance 30mW/cm^2, emission slit setting: 560-720nm.] (FIG 8A: 2µM; FIG 8B: 0.2µM; FIGBC: 0.02µM).

HeLa cells [3] = experiment: Cytophototoxicity by MTT assay under illumination; format: cell-based; details: irradiance 60mW/cm^2
Protocol: as §1, §2, §3

HeLa cells [4] = test system: HeLa cells
Protocol: as §1, §2, §3

DNA = details: b156 attributes 634 nm to DNA-bound TP2Py in vitro (Allains et al. 2007); cited from earlier work
MCF-7 cells = experiment: FITC-conjugated Annexin V staining, flow cytometric analysis (apoptosis); format: cell-based; details: proapoptotic controls, no illumination; ActD 1µg/mL; CPT 10µM for 2.5 hours
Protocol: MCF-7 cells were plated in 12-well plates (2.10^5 cells/well) and incubated with 2µM of TP2Py for 2h at 37°C. Under specific conditions (see Fig. 12), cells were further incubated with NAC (1mM) for 30 min, Bapta-AM (20µM) for 3h, or CsA (10µM) for 1h at 37°C. After a time illumination of either 30 or 60 min at […] (Mercury lamp (130W; 380-600nm) + excitation filter centered at 452nm (± 45nm)), cells were gently scraped and pooled with medium floating cells. Cells were individualized in PBS-EDTA (10mM) and stained as described by the manufacturer (Roche, Germany). Briefly, the cell pellet was re-suspended in 500µl Annexin V-HEPES solution (10 mM HEPES-NaOH, pH 7.4, 140mM NaCl, 5mM CaCl2) and incubated on ice for 30 min in the dark. Cells were then washed in ice-cold HEPES buffer before analysis. Fluorescence signals of fluorescently labelled (FITC) Annexin V and TP2Py were measured by a FACSCalibur flow cytometer (Becton-Dickinson, Sunnyvale, CA, USA) using FL1 and FL2 detectors, respectively.
Different experiments are summarized below: • MCF-7 cells treated with 2µM TP2Py for 2 hours and then stained with FITC-conjugated Annexin V immediately (Fig.12A) without light exposure; • MCF-7 cells treated with 2µM TP2Py for 2 hours and then stained with FITC-conjugated Annexin V after a time illumination (Exc, 452 nm) of 30 min (Fig.12B); • MCF-7 cells treated with 2µM TP2Py for 2 hours and then stained with FITC-conjugated Annexin V after a time illumination (Exc, 452 nm) of 60 min (Fig.12C); • control MCF-7 cells treated with DMSO (1%) only and illuminated for 30 min before Annexin V staining (Fig.12D); • control MCF-7 cells treated with 1µg/mL actinomycin D (ActD), no illumination before Annexin V staining (Fig.12E); • control MCF-7 cells treated with camptothecin (CPT, 10µM)) (Fig.12F) for 2.5 hours, no illumination before Annexin V staining; • MCF-7 cells treated during 2 hours with 2µM TP2Py and 10µM cyclosporine A (CsA) and illuminated for 30 min before Annexin V staining (Fig.12G); • MCF-7 cells treated during 2 hours with 2µM TP2Py and 1 mM N-Acetyl cysteine (NAC) and illuminated for 30 min before Annexin V staining (Fig.12H); and • MCF-7 cells treated during 2 hours with 2µM TP2Py and 20µM Bapta-am (Fig.12I) and illuminated for 30 min before Annexin V staining.
The horizontal (FL1-H) and vertical (FL2-H) axes correspond to the fluorescence signal of Annexin V and TP2Py, respectively. The percentage of population with a high mean fluorescence signal is indicated in the corresponding quadrant (top right or bottom right in the presence or absence of TP2Py, respectively).

[5] = cited from earlier work
[6] = in water up to 10 µM; cited from earlier work
[7] = at 630 nm; cited from earlier work

In the case of `CN(C)c1ccc(C(=C2C=CC(=[N+](C)C)C=C2)c2ccc(N(C)C)cc2)cc1` [CV, crystal violet], the “total fluence or light dose” value [1] is listed as 1.7 J/cm^2.
In the case of `CN(C)c1ccc2nc3ccc(=[N+](C)C)cc-3sc2c1` [MB, methylene blue], the “total fluence or light dose” value [1] is given as 1.7 J/cm^2.
In the case of `CC(=O)Oc1c(I)cc2c(c1I)Oc1c(cc(I)c(OC(C)=O)c1I)C21OC(=O)c2c(Cl)c(Cl)c(Cl)c(Cl)c21` [RBA, Rose Bengal acetate], the “total fluence or light dose” value [1] is given as 1.6 J/cm^2.
For `Cn1c(/C=C/c2ccc(N(c3ccc(/C=C/c4n(C)c5ccccc5[n+]4C)cc3)c3ccc(/C=C/c4n(C)c5ccccc5[n+]4C)cc3)cc2)[n+](C)c2ccccc21` [TP3Bzim], the CC50 [2] was over 30 µM, the “deduced fluence (re-localization of the fluorescence signal and formation of blebs)” value (living MCF-7 cells) was 40 J/cm^2 and the “illumination time required for the same TC50 under illumination” value (HeLa cells [3]; Mercury lamp, filter 452nm) was 15 min. The corresponding light dose (HeLa cells [3]) was 54 J/cm^2, the “dark toxicity (concentration below which negligible)” value (HeLa cells [4]) was at least 50 µM and the “λmax,emission” value (DNA) was 572 nm.
In the case of `Cn1c(/C=C/c2ccc(N(c3ccccc3)c3ccc(/C=C/c4n(C)c5ccccc5[n+]4C)cc3)cc2)[n+](C)c2ccccc21` [Tp2Bzim], the CC50 [2] is reported as 10 µM.
Compound `C[n+]1ccccc1/C=C/c1ccc(N(c2ccccc2)c2ccc(/C=C/c3cccc[n+]3C)cc2)cc1` [Tp2Pyo] has a CC50 [2] of 20 µM.
With `Cc1c2oc3c(C)ccc(C(=O)N[C@@H]4C(=O)N[C@H](C(C)C)C(=O)N5CCC[C@H]5C(=O)N(C)CC(=O)N(C)[C@@H](C(C)C)C(=O)O[C@@H]4C)c3nc-2c(C(=O)N[C@@H]2C(=O)N[C@H](C(C)C)C(=O)N3CCC[C@H]3C(=O)N(C)CC(=O)N(C)[C@@H](C(C)C)C(=O)O[C@@H]2C)c(N)c1=O` [actinomycin D, reference compound] (I: T[dV]P[Sar][NMeV] / II: T[dV]P[Sar][NMeV]; ester I:1-I:C, II:1-II:C; linker I:N-II:N via Actinocin(9to1)) the “HMFI population (Annexin V positive, TP2Py negative)” value (MCF-7 cells) was 34%.
With `CC[C@@]1(O)C(=O)OCc2c1cc1n(c2=O)Cc2cc3ccccc3nc2-1` [camptothecin, reference compound] the “HMFI population (Annexin V positive, TP2Py negative)” value (MCF-7 cells) was 37%.
For `C=Cc1c(C)c2cc3nc(c(CC(=O)O)c4[nH]c(cc5nc(cc1[nH]2)C(C)=C5CC)c(C)c4C(=O)O)[C@@H](CCC(=O)O)[C@@H]3C` [chlorin e6], the two-photon cross-section ([5]; at 800 nm) is listed as 29 GM and the quantum yield [6] is listed as 0.008-0.01.
For Photofrin®, the extinction coefficient [7] is given as 3200 M⁻¹ cm⁻¹, the two-photon cross-section ([5]; at 800 nm) is given as 10 GM and the two-photon cross-section ([5]; at 900 nm) is given as 5 GM.

— patent publication EP2711366A1, “Cationic triphenylamine derivatives activable by visible and Infra Red light for inducing and imaging apoptosis in cancer cells” (Institut Curie, priority 2012, dated 2014)
